Assay results from patent publication US20250082654A1, “AZD3355 (LESOGABERAN) FOR TREATMENT AND PREVENTION OF NONALCOHOLIC STEATOHEPATITIS (NASH), LIVER FIBROSIS, AND OTHER LIVER CONDITIONS” (Icahn School of Medicine at Mount Sinai, priority 2018, published 2025).

Assays:
LX-2 cells = assay: Cell apoptosis assay (caspase-3/7 activity); assay type: cell-based, human; settings: any dosage, 72 hours
Method: (§1) At the beginning of each experiment, stellate cells (LX-2 cells or phHSCs) were serum-starved overnight in DMEM supplied with 0.1% BSA (without antibiotic) to synchronize metabolic activities of the cells. The cells were then exposed to different working concentration of either AZD3355 or sorafenib for 24, 48 and 72 hours.
(§2) 5,000 LX-2 cells or 10,000 phHSCs were plated per well in 96-well clear bottom black plates. After overnight serum starvation in DMEM supplemented with 0.1% BSA (without antibiotic) the cells were exposed to AZD3355 at indicated concentration. For positive apoptotic control the cells were treated with 3% DMSO. After 72 hours of drug exposure the fluorescence signal of Caspase-3 and -7 activities were measured in Synergy HT (BioTek Instrument Inc., VT) spectrofluorometer by using Apo-ONE Homogeneous Caspase-3/7 Assay kit (Promega, WI) according to manufacturer's protocol.

phHSCs = assay: Cell apoptosis assay (caspase-3/7 activity); assay type: cell-based, human; settings: any dosage, 72 hours
Method: as §1, §2

human liver slices = assay: Liver slice assay, histopathology and H&E staining; assay type: cell-based; settings: 24 hours
Method: Ten human liver pieces were collected from the Mount Sinai biorepository. The samples were prepared by coring the liver with 8 mm cylindrical coring tools. The liver cores were kept in ice cold WE medium, with GlutaMAX supplemental. A liver core was then mounted on a specimen plate with cyanoacrylate adhesive. Liver slices (approximately 200 μm in thickness) were placed in ice cold Krebs-Henesleit buffer in the presence of carbogen gas. There was then a 1 hour pre-incubation in WE GlutaMAX media with gentamicin in 95% O2 and 5% CO2 at 37° C. in a humidified rocker chamber to restore ATP levels.
The liver slices were then cultured in WE GlutaMAX media with gentamicin in 95% O2 and 5% CO2 at 37° C. in a humidified rocker chamber with slow 70 rpm rocking in the presence of AZD3355 in the amounts of 250 nM, 500 nM, 1000 nM, or 2000 nM, or sorafenib at 1000 nM., or control vehicle (saline water).
After 24 hours, the tissue slices were harvested for either RNA isolation and quantitative PCR for measurements of Col1α1, TNFα, and IL-6 expression, or for histopathology and hematoxylin and eosin (H&E) staining as described in Example 3.

NASH model mice = assay: NASH mouse model, histopathological scoring of liver sections; assay type: in vivo; settings: for Hepatocyte ballooning ± SE: score 0-2; for Portal inflammation ± SE / Lobular Inflammation ± SE / Steatosis ± SE: score 0-3; for Fibrosis Stage ± SE: score 0-4; for NAFLD activity score (NAS) ± SE: score 0-8
Method: Four separate groups of mice were given either 0.5% methylcellulose (as Vehicle) or AZD3355 at 10 mg/kg (low dose) body weight of mice or 30 mg/kg (high dose) body weight of mice by twice daily (BID (5 days/week)) and OCA at 30 mg/kg body weight of mice by daily (QD (5 days/week)) through oral route for up to next 12 weeks (week 13 to week 24). Them last group of mice were not given any drug or vehicle treatment, as No Tx—24 weeks and maintained in parallel with treatment/vehicle groups. Usually all doses were given at early morning and the second daily dose of AZD3355 at evening (10 hours of intervals). All animals were closely monitored the health conditions and behavior.
A piece of tissue from large liver lobe was fixed in 10% Formalin Buffered (Astral Diagnostics Incorporated NJ) embedded in paraffin and microtome sectioning were performed. Slides containing tissue sections were baked at 60° C. for 1 hour and re-hydrated through xylene followed by graded ethanol (100%, 95%, 85% and 70%) into distilled water and processed in either Picrosirius red/Fast green or hematoxylin and eosin staining.
A total of 2 sections/animal were stained with H&E staining performed by standard protocol.
Steatosis, hepatocyte ballooning, lobular inflammation, portal inflammation and fibrosis of picroserious red/fast green and H&E stained liver section were scored according to the NASH Clinical Research Network (NASH CRN) scoring system in a blinded fashion by an expert hepato-pathologist in Icahn School of Medicine at Mount Sinai. NAFLD activity score (NAS) was calculated according to Brunt criteria and range from 0-8. NAS was calculated by the sum of scores of steatosis (0-3), hepatocyte ballooning (0-2) and lobular inflammation (0-3). NAS score of >5.0 strongly correlated with “definite-NASH” whereas <3 correlated with “not-NASH”. Fibrosis (0-4) or portal inflammation (0-3) scores were assessed separately and not included in NAS.

[1] = NASH mouse model, body weight; assay type: in vivo; settings: male and female NASH model mice, 12-week treatment
Method: The experimental protocol was reviewed and approved by the Institutional Animal Care and Use Committee (IACUC) at Icahn School of Medicine at Mount Sinai, NY. Male and Female C57BL/6J mice (age: 6 weeks; weight: 20-25 g) were purchased from Jackson Laboratories (Farmington, CT). Animals were housed in a 12 hours light—12 hours dark cycle in the animal facility at Icahn School of Medicine at Mount Sinai, NY and handled following guidelines for the care and use of laboratory animals. Male and female mice were maintained in separate cages.
Carbon tetrachloride (CC14) was purchased from Sigma-Aldrich, MO. CC14 was freshly dissolved in corn oil at final concentration of 5% before injection. […]
Western diet containing 21.2% fat (42% Kcal), 41% sucrose and 1.25% cholesterol by weight was purchased from Envigo, WI (Teklad Custom diet Cat #TD.120528). […] During change of food and water we have been measured the amount of food and water intake and the data was collected.
Four separate groups of mice were given either 0.5% methylcellulose (as Vehicle) or AZD3355 at 10 mg/kg (low dose) body weight of mice or 30 mg/kg (high dose) body weight of mice by twice daily (BID (5 days/week)) and OCA at 30 mg/kg body weight of mice by daily (QD (5 days/week)) through oral route for up to next 12 weeks (week 13 to week 24). […] All animals were closely monitored the health conditions and behavior.

NC[C@@H](F)C[PH](=O)O [AZD3355, [(2R)-3-amino-2-fluoropropyl] phosphinic acid]
apoptotic effect (caspase-3/7 activity) (LX-2 cells): no apoptotic effect | apoptotic effect (caspase-3/7 activity) (phHSCs): no apoptotic effect | liver cells viability (H&E) (human liver slices): did not change | Hepatocyte ballooning ± SE (NASH model mice; ♀ Mice, 10 mg/kg, vehicle 1.2 ± 0.1): 1.3 ± 0.1 | Portal inflammation ± SE (NASH model mice; ♀ Mice, 10 mg/kg, vehicle 1.6 ± 0.1): 1.6 ± 0.1 | Lobular Inflammation ± SE (NASH model mice; ♀ Mice, 10 mg/kg, vehicle 2.3 ± 0.1): 2.5 ± 0.1 | Steatosis ± SE (NASH model mice; ♀ Mice, 10 mg/kg, vehicle 2.5 ± 0.1): 2.6 ± 0.1 | Fibrosis Stage ± SE (NASH model mice; ♀ Mice, 10 mg/kg, vehicle 3.0 ± 0.1): 3.1 ± 0.1 | NAFLD activity score (NAS) ± SE (NASH model mice; ♀ Mice, 10 mg/kg, vehicle 6.1 ± 0.4): 6.4 ± 0.4 | Steatohepatitis Grade ± SE (NASH model mice; ♀ Mice, 10 mg/kg, vehicle 1.8 ± 0.2): 2.1 ± 0.2 | Hepatocyte ballooning ± SE (NASH model mice; ♀ Mice, 30 mg/kg twice daily, vehicle 1.2 ± 0.1): 1.3 ± 0.1 | Portal inflammation ± SE (NASH model mice; ♀ Mice, 30 mg/kg twice daily, vehicle 1.6 ± 0.1): 2.0 ± 0.0 | Lobular Inflammation ± SE (NASH model mice; ♀ Mice, 30 mg/kg twice daily, vehicle 2.3 ± 0.1): 2.7 ± 0.1 | Steatosis ± SE (NASH model mice; ♀ Mice, 30 mg/kg twice daily, vehicle 2.5 ± 0.1): 2.3 ± 0.1 | Fibrosis Stage ± SE (NASH model mice; ♀ Mice, 30 mg/kg twice daily, vehicle 3.0 ± 0.1): 3.1 ± 0.1 | NAFLD activity score (NAS) ± SE (NASH model mice; ♀ Mice, 30 mg/kg twice daily, vehicle 6.1 ± 0.4): 6.4 ± 0.3 | Steatohepatitis Grade ± SE (NASH model mice; ♀ Mice, 30 mg/kg twice daily, vehicle 1.8 ± 0.2): 2.2 ± 0.2 | Hepatocyte ballooning ± SE (NASH model mice; ♂ Mice, 10 mg/kg, vehicle 1.7 ± 0.1): 1.7 ± 0.1 | Portal inflammation ± SE (NASH model mice; ♂ Mice, 10 mg/kg, vehicle 2.0 ± 0.1): 1.9 ± 0.0 | Steatosis ± SE (NASH model mice; ♂ Mice, 10 mg/kg, vehicle 2.7 ± 0.1): 2.7 ± 0.1 | Lobular Inflammation ± SE (NASH model mice; ♂ Mice, 10 mg/kg, vehicle 2.8 ± 0.1): 2.8 ± 0.1 | Fibrosis Stage ± SE (NASH model mice; ♂ Mice, 10 mg/kg, vehicle 3.3 ± 0.1): 3.2 ± 0.1 | NAFLD activity score (NAS) ± SE (NASH model mice; ♂ Mice, 10 mg/kg, vehicle 7.2 ± 0.3): 7.2 ± 0.3 | Steatohepatitis Grade ± SE (NASH model mice; ♂ Mice, 10 mg/kg, vehicle 2.6 ± 0.2): 2.7 ± 0.1 | Hepatocyte ballooning ± SE (NASH model mice; ♂ Mice, 30 mg/kg twice daily, vehicle 1.7 ± 0.1): 1.8 ± 0.1 | Portal inflammation ± SE (NASH model mice; ♂ Mice, 30 mg/kg twice daily, vehicle 2.0 ± 0.1): 2.0 ± 0.2 | Steatosis ± SE (NASH model mice; ♂ Mice, 30 mg/kg twice daily, vehicle 2.7 ± 0.1): 2.4 ± 0.1 | Lobular Inflammation ± SE (NASH model mice; ♂ Mice, 30 mg/kg twice daily, vehicle 2.8 ± 0.1): 2.6 ± 0.2 | Fibrosis Stage ± SE (NASH model mice; ♂ Mice, 30 mg/kg twice daily, vehicle 3.3 ± 0.1): 3.0 ± 0.0 | NAFLD activity score (NAS) ± SE (NASH model mice; ♂ Mice, 30 mg/kg twice daily, vehicle 7.2 ± 0.3): 6.8 ± 0.5 | Steatohepatitis Grade ± SE (NASH model mice; ♂ Mice, 30 mg/kg twice daily, vehicle 2.6 ± 0.2): 2.5 ± 0.2 | body weight during treatment [1]: stable
